Data reported in patent publication US9492398B2, “Nanocapsulation of essential oils for preventing or curing infectious diseases alone or with an antibiotic” (Eydo Pharma, priority 2011, dated 2016).
Values after ≈ are worked out from the molar mass of the structure shown.

Key:
[1] = from the literature; cited from earlier work
[2] = system: S. aureus 0702E0196; assay: Minimal inhibitory concentration on Muller-Hinton agar; assay type: cell-based; settings: for Minimal Inhibitory Concentration: S. aureus 0702E0196; for MIC: Staphylococcus aureus, 0702E0196, S. aureus 0702E0196, read-out: Minimal Inhibitory Concentration
Procedure: (§1) The essential oils were also tested individually for their minimal inhibitory concentration.
(§2) The solution was first prepared at 40% in DMSO before being placed on the Muller-Hinton agar in the following manner in Table VIII:
(§3) Twenty-two different microorganisms were tested and their minimal inhibitory concentration was tested.

[3] = system: P. aeroginosa ATCC27853; assay: as above; assay type: cell-based; settings: P. aeroginosa ATCC27853; read-out: Minimal Inhibitory Concentration
Procedure: as §1, §2, §3

[4] = system: S. aureus ATC25923; assay: as above; assay type: cell-based; settings: for Minimal Inhibitory Concentration: S. aureus ATC25923; for MIC: Staphylococcus aureus, ATC25923, S. aureus ATC25923, read-out: Minimal Inhibitory Concentration
Procedure: as §1, §2, §3

[5] = system: A. baumanni SAN008; assay: as above; assay type: cell-based; settings: A. baumanni SAN008; for MIC: read-out: Minimal Inhibitory Concentration
Procedure: as §1, §2, §3

[6] = system: A. baumanni 12; assay: as above; assay type: cell-based; settings: A. baumanni 12; for MIC: read-out: Minimal Inhibitory Concentration
Procedure: as §1, §2, §3

[7] = system: A. baumanni AYE; assay: as above; assay type: cell-based; settings: A. baumanni AYE; for MIC: read-out: Minimal Inhibitory Concentration
Procedure: as §1, §2, §3

[8] = system: S. aureus 0703H0036; assay: as above; assay type: cell-based; settings: for Minimal Inhibitory Concentration: S. aureus 0703H0036; for MIC: Staphylococcus aureus, 0703H0036, S. aureus 0703H0036, read-out: Minimal Inhibitory Concentration
Procedure: as §1, §2, §3

[9] = system: S. aureus 0701A0095; assay: as above; assay type: cell-based; settings: for Minimal Inhibitory Concentration: S. aureus 0701A0095; for MIC: Staphylococcus aureus, 0701A0095, S. aureus 0701A0095, read-out: Minimal Inhibitory Concentration
Procedure: as §1, §2, §3

[10] = system: A. baumanni CIP7034; assay: as above; assay type: cell-based; settings: A. baumanni CIP7034; for MIC: read-out: Minimal Inhibitory Concentration
Procedure: as §1, §2, §3

[11] = system: A. baumanni CIP107292; assay: as above; assay type: cell-based; settings: A. baumanni CIP107292; read-out: Minimal Inhibitory Concentration
Procedure: as §1, §2, §3

[12] = system: E. coli ATCC25922; assay: as above; assay type: cell-based
Procedure: as §1, §2, §3

[13] = system: K. oxyloca 0705C0187; assay: as above; assay type: cell-based; settings: K. oxyloca 0705C0187; for MIC: read-out: Minimal Inhibitory Concentration
Procedure: as §1, §2, §3

[14] = system: P. aeroginosa 0703C0259; assay: as above; assay type: cell-based
Procedure: as §1, §2, §3

[15] = system: A. baumanni RCH; assay: as above; assay type: cell-based; settings: A. baumanni RCH
Procedure: as §1, §2, §3

[16] = system: E. coli 0705A0434; assay: as above; assay type: cell-based; settings: for Minimal Inhibitory Concentration: E. coli 0705A0434; for MIC: Escherichia coli, 0705A0434, E. coli 0705A0434, read-out: Minimal Inhibitory Concentration
Procedure: as §1, §2, §3

[17] = system: S. aureus 0706C0025; assay: as above; assay type: cell-based; settings: for MIC: Staphylococcus aureus, 0706C0025, S. aureus 0706C0025, read-out: Minimal Inhibitory Concentration
Procedure: as §1, §2, §3

[18] = system: A. baumanni CIP5377; assay: as above; assay type: cell-based; settings: A. baumanni CIP5377
Procedure: as §1, §2, §3

[19] = system: P. aeroginosa 0704C0134; assay: as above; assay type: cell-based; settings: P. aeroginosa 0704C0134; for MIC: read-out: Minimal Inhibitory Concentration
Procedure: as §1, §2, §3

[20] = system: Salmonell enteritidis 4; assay: as above; assay type: cell-based; settings: Salmonell enteritidis 4; for MIC: read-out: Minimal Inhibitory Concentration
Procedure: as §1, §2, §3

[21] = system: E. cloacae 0705A1743; assay: as above; assay type: cell-based
Procedure: as §1, §2, §3

[22] = system: E. aerogenes 0705A0867; assay: as above; assay type: cell-based; settings: for Minimal Inhibitory Concentration: E. aerogenes 0705A0867; for MIC: Klebsiella aerogenes, 0705A0867, E. aerogenes 0705A0867, read-out: Minimal Inhibitory Concentration
Procedure: as §1, §2, §3

[23] = read-out: Minimal Inhibitory Concentration

Compound	LD50 in mice by intraperitoneal injection [1]	Minimal Inhibitory Concentration [2]	MIC [2]	Minimal Inhibitory Concentration [4]	MIC [4]	Minimal Inhibitory Concentration [5]	MIC [5]	MIC [6]	Minimal Inhibitory Concentration [7]	MIC [7]	Minimal Inhibitory Concentration [8]	MIC [8]	Minimal Inhibitory Concentration [9]	MIC [9]	MIC [10]	Minimal Inhibitory Concentration [13]	MIC [13]	MIC [14]	Minimal Inhibitory Concentration [14]	Minimal Inhibitory Concentration [16]	also measured
Gentamicin	245 mg/kg																				
C=CCc1ccc(O)c(OC)c1 [eugenol]		1.5 mg/mL	1000 µg/mL (≈ 6.09 mM)	1.5 mg/mL	750 µg/mL (≈ 4.57 mM)	1.5 mg/mL	750 µg/mL (≈ 4.57 mM)	1000 µg/mL (≈ 6.09 mM)	1 mg/mL	750 µg/mL (≈ 4.57 mM)	1.5 mg/mL	1000 µg/mL (≈ 6.09 mM)	1.5 mg/mL	750 µg/mL (≈ 4.57 mM)	1000 µg/mL (≈ 6.09 mM)	1.5 mg/mL	1000 µg/mL (≈ 6.09 mM)	2500 µg/mL (≈ 15.2 mM)	5 mg/mL	1.5 mg/mL	MIC [3]: 7500 µg/mL (≈ 45.7 mM); Minimal Inhibitory Concentration [6]: 1.5 mg/mL; Minimal Inhibitory Concentration [10]: 1.5 mg/mL; MIC [11]: 1000 µg/mL (≈ 6.09 mM); Minimal Inhibitory Concentration ([12]; E. coli ATCC25922): 1.5 mg/mL; MIC ([12]; Escherichia coli, ATCC25922, E. coli ATCC25922, read-out: Minimal Inhibitory Concentration): 750 µg/mL (≈ 4.57 mM); Minimal Inhibitory Concentration [15]: 1 mg/mL; MIC [15, 23]: 750 µg/mL (≈ 4.57 mM); MIC [16]: 1000 µg/mL (≈ 6.09 mM); MIC [17]: 1000 µg/mL (≈ 6.09 mM); Minimal Inhibitory Concentration [18]: 1 mg/mL; MIC [18, 23]: 500 µg/mL (≈ 3.04 mM); Minimal Inhibitory Concentration [19]: 2 mg/mL; MIC [19]: 1500 µg/mL (≈ 9.13 mM); Minimal Inhibitory Concentration [20]: 1.5 mg/mL; MIC [20]: 1000 µg/mL (≈ 6.09 mM); Minimal Inhibitory Concentration ([21]; E. cloacae 0705A1743): 1.5 mg/mL; MIC ([21]; Enterobacter cloacae, 0705A1743, E. cloacae 0705A1743, read-out: Minimal Inhibitory Concentration): 1000 µg/mL (≈ 6.09 mM); Minimal Inhibitory Concentration [22]: 1.5 mg/mL; MIC [22]: 1000 µg/mL (≈ 6.09 mM)
O=C/C=C/c1ccccc1 [trans cinnamaldehyde]		1.5 mg/mL	1000 µg/mL (≈ 7.57 mM)	1.5 mg/mL	750 µg/mL (≈ 5.67 mM)	2 mg/mL	1000 µg/mL (≈ 7.57 mM)	1000 µg/mL (≈ 7.57 mM)	2 mg/mL	1000 µg/mL (≈ 7.57 mM)	1.5 mg/mL	750 µg/mL (≈ 5.67 mM)	1.5 mg/mL	750 µg/mL (≈ 5.67 mM)	1000 µg/mL (≈ 7.57 mM)	2 mg/mL	1000 µg/mL (≈ 7.57 mM)	1500 µg/mL (≈ 11.3 mM)	2 mg/mL	2 mg/mL	MIC [16]: 1000 µg/mL (≈ 7.57 mM); Minimal Inhibitory Concentration ([17]; S. aureus 0706C0025): 0.5 mg/mL; MIC [17]: 750 µg/mL (≈ 5.67 mM); Minimal Inhibitory Concentration [19]: 2 mg/mL; MIC [19]: 1000 µg/mL (≈ 7.57 mM); Minimal Inhibitory Concentration [20]: 2 mg/mL; MIC [20]: 1000 µg/mL (≈ 7.57 mM); Minimal Inhibitory Concentration [22]: 2 mg/mL; MIC [22]: 1000 µg/mL (≈ 7.57 mM)
[H]/N=C(/N)N[C@H]1[C@H](O)[C@@H](O)[C@H](O[C@@H]2O[C@@H](C)[C@](O)(C=O)[C@H]2O[C@@H]2O[C@@H](CO)[C@H](O)[C@@H](O)[C@@H]2NC)[C@@H](N/C(N)=N\[H])[C@@H]1O [Streptomycin]	525 mg/kg																				
CC[C@H]1OC(=O)[C@H](C)[C@@H](O[C@H]2C[C@@](C)(OC)[C@@H](O)[C@H](C)O2)[C@H](C)[C@@H](O[C@@H]2O[C@H](C)C[C@H](N(C)C)[C@H]2O)[C@](C)(O)C[C@@H](C)C(=O)[C@H](C)[C@@H](O)[C@]1(C)O [Erythromycin]	280 mg/kg																				
